COc1cc2oc(=O)cc(-c3ccccc3)c2cc1O
solubility (mole fraction)
Conditions	in acetone	in chloroform	in ethyl acetate	in methanol	in n-hexane	in water
283.2 K	0.00229	0.00313	0.0014	0.000504	3.88e-06	1.03e-07
288.2 K	0.00237	0.00361	0.00153	0.000516	4.03e-06	1.11e-07
293.2 K	0.00256	0.00374	0.00165	0.000542	4.09e-06	1.12e-07
299.2 K	0.0027	0.00414	0.00193	0.000646	4.48e-06	1.12e-07
303.2 K	0.00326	0.00457	0.00204	0.000722	4.76e-06	1.44e-07
308.2 K	0.0037	0.0059	0.00223	0.000835	5.36e-06	1.64e-07

O=c1cc(-c2ccccc2)c2cc(O)c(O)cc2o1
solubility (mole fraction)
Conditions	in acetone	in chloroform	in ethyl acetate	in methanol	in n-hexane	in water
283.2 K	0.0022	3.75e-08	0.000553	0.000986	2.04e-08	7.94e-08
288.2 K	0.00228	4.16e-08	0.000572	0.00102	4.3e-08	1.39e-07
293.2 K	0.00237	5.93e-08	0.000616	0.0011	5.6e-08	1.92e-07
299.2 K	0.00246	7.09e-08	0.000928	0.00129	7.86e-08	2.39e-07
303.2 K	0.00266	1.04e-07	0.00101	0.00147	8.43e-08	2.51e-07
308.2 K	0.00299	1.71e-07	0.00139	0.00179	1.35e-07	3.57e-07

Source: BigSolDB 2.1
